The values that follow come from patent US11078207B2, “Substituted pyrrolo[2,3-d]pyrimidines as HER2 inhibitors” (TAIHO PHARMACEUTICAL CO., LTD., priority 2019, dated 2021).

The target in series [1] is T1, HER2 (Homo sapiens, UniProt P04626).
T1 construct: purchased Carna Biosciences, Inc
Briefly: Inhibitory effect (in vitro) on HER2 phosphorylation activity. The class given is biochemical. Particulars: recombinant human HER2, ATP 5 μM, 25° C. 30 minutes. From the text:
In order to determine conditions for a method of measuring the in vitro inhibitory activity of a compound against HER2 phosphorylation activity, based on the report regarding a HER2 kinase reaction using, as a substrate, a peptide having the same sequence (5-FAM-[…]-CONH2) as that of ProfilerPro Peptide 22 of PerkinElmer (Xie H et al., PLoS One. 2011; 6(7): e21487), ProfilerPro Peptide 22 was used as a substrate. A purified recombinant human HER2 protein used in the present test was purchased from Carna Biosciences, Inc. Upon the measurement of the inhibitory activity of the compound, first, the compound of the present invention was diluted stepwise with dimethyl sulfoxide (DMSO). […] To the reaction solution, EDTA was added to a final concentration of 30 mM, so as to terminate the reaction. Finally, using LabChip (registered trademark) EZ Reader II (PerkinElmer), an unphosphorylated substrate peptide (S) and a phosphorylated peptide (P) were separated and detected according to microchannel capillary electrophoresis.

In series [2] the target is HER2 exon 20 insertion mutant (HER2ex20insYVMA, A775_G776insYVMA) (Homo sapiens, UniProt P04626, DUP772-775). Briefly: Inhibitory action (in vitro) against HER2 exon 20 insertion mutant phosphorylation activity. Particulars: 30 min pre-incubation, ATP 200 μM, 25° C. 220 minutes. In kind it is biochemical. From the text:
In order to determine conditions for a method of measuring the in vitro inhibitory activity of a compound against HER2 exon 20 insertion mutant phosphorylation activity, as in the case of HER2, ProfilerPro Peptide 22 was used as a substrate. A purified recombinant human HER2 exon 20 insertion mutant (A775_G776insYVMA) protein is shown in SEQ ID NO: 7, and was purchased from SignalChem. Upon the measurement of the inhibitory activity of the compound, first, the compound of the present invention was diluted stepwise with dimethyl sulfoxide (DMSO). Subsequently, the HER2 exon 20 insertion mutant protein and the compound of the present invention in DMSO solution (final concentration of DMSO: 5%) were added into a buffer for the kinase reaction (13.5 mM Tris (pH 7.5), 2 mM dithiothreitol, and 0.009% Tween 20), and the obtained mixture was then pre-incubated at 25° C. for 30 minutes. Thereafter, the substrate peptide (final concentration: 1 μM), manganese chloride (final concentration: 25 mM), magnesium chloride (final concentration: 20 mM), and ATP (final concentration: 200 μM) were added into the reaction mixture, and the thus obtained mixture was then incubated at 25° C. for 220 minutes, so that the kinase reaction was carried out. To the reaction solution, EDTA was added to a final concentration of 30 mM, so as to terminate the reaction. Finally, using LabChip (registered trademark) EZ Reader II (PerkinElmer), an unphosphorylated substrate peptide (S) and a phosphorylated peptide (P) were separated and detected according to microchannel capillary electrophoresis.

Series [3] deals with SK-BR-3 cells. The series is described as follows: Growth inhibitory activity against HER2 expressing cell line SK-BR-3. Particulars: Homo sapiens, SK-BR-3, 72 h; 3 days, CellTiter-Glo 2.0. In kind it is cell-based. The procedure:
SK-BR-3 cells as a HER2 overexpressing human breast cancer cell line were suspended in a McCoy's 5a medium (manufactured by Life Technologies) supplemented with 10% fetal bovine serum. The cell suspension was seeded in each well of a 384-well flat-bottom microplate, and was then cultured in a 5% carbon dioxide gas-containing culture vessel at 37° C. for 1 day. Thereafter, the compound of the present invention was dissolved in DMSO, and the compound was diluted to 500 times the final concentration in DMSO. The compound in the DMSO solution was diluted with DMSO solution or the medium used in the suspension of the cells, and the obtained solution was then added to each well of the culture plate so that the final concentration of DMSO was 0.2%. The obtained mixture was further cultured in the 5% carbon dioxide gas-containing culture vessel at 37° C. for 3 days. After completion of the culture for 3 days in the presence of the compound, the cells were counted using CellTiter-Glo 2.0 (manufactured by Promega), and the growth inhibition percentage was then calculated according to the following equation. […] Growth inhibitory percentage (%)=(C−T)/(C)×100 T: Emission intensity from the well to which the test compound was added C: Emission intensity from the well to which the test compound was not added
(ATP-based viability assays read luminescence as a measure of living cells.)

Series [4] addresses Ba/F3-HER2insYVMA cells (Homo sapiens, UniProt P04626, DUP772-775, cells depend on it). The series is described as follows: Growth inhibitory activity against HER2 exon 20 insertion mutant expressing cell line. The note with it: 3 days, CellTiter-Glo 2.0, read-out: HER2ex20insYVMA cell growth inhibitory activity IC50 value. In kind it is cell-based, mouse. The procedure:
Growth inhibitory activity against the HER2 exon 20 insertion mutant was measured using Ba/F3 cells that were a mouse B lymphocyte precursor cell line, into which a human HER2 exon 20 insertion mutant gene had been introduced. The Ba/F3 cells were maintained in an RPMI-1640 medium (Thermo Fisher Scientific) supplemented with 10% fetal bovine serum (FBS), 100 U/mL penicillin, 100 μg/mL streptomycin (Thermo Fisher Scientific) and 1 ng/mL mouse interleukin-3 (mIL-3) (CST).
Upon evaluation of cell growth inhibitory activity, the Ba/F3-HER2insYVMA cells were suspended in an RPMI-1640 medium supplemented with 10% FBS, 100 U/mL penicillin, and 100 μg/mL streptomycin. The cell suspension was seeded in each well of a 96-well flat-bottom microplate, and was then cultured in a 5% carbon dioxide gas-containing culture vessel at 37° C. for 1 day. The compound of the present invention was dissolved in DMSO, and was then diluted with DMSO or the medium used in the suspension of the cells. The obtained solution was then added to each well of the culture plate, so that the final concentration of DMSO became 0.2%. The obtained mixture was further cultured in the 5% carbon dioxide gas-containing culture vessel at 37° C. for 3 days. After completion of the culture for 3 days in the presence of the compound, the cells were counted using CellTiter-Glo 2.0 (manufactured by Promega), and the growth inhibition percentage was then calculated according to the following equation. […] Growth inhibitory percentage (%)=(C−T)/(C)×100 T: Emission intensity from the well to which the test compound was added C: Emission intensity from the well to which the test compound was not added

Series [5] deals with NCI-N87 cells. Briefly: Growth inhibitory activity against HER2 expressing cell line NCI-N87. In kind it is cell-based. Particulars: Homo sapiens, NCI-N87, 72 h; 3 days, CellTiter-Glo 2.0. The procedure:
NCI-N87 cells as a HER2 overexpressing human stomach cancer cell line (American Type Culture Collection, Cat No. ATCC (registered trademark) CRL-5822) were suspended in an RPMI640 medium (Wako Pure Chemical Industries, Ltd.) supplemented with 10% fetal bovine serum. Subsequently, the cell suspension was seeded in each well of a 96-well flat-bottom microplate, and was then cultured in a 5% carbon dioxide gas-containing culture vessel at 37° C. for 1 day. Thereafter, the compound of the present invention was dissolved in DMSO, and the compound was diluted to 1000 times the final concentration in DMSO. The compound in the DMSO solution was diluted with the medium used in the suspension of the cells, and the obtained solution was then added to each well of the culture plate, so that the final concentration of DMSO became 0.1%. Regarding a control well, DMSO was diluted with the medium used in the suspension of the cells, and the obtained solution was then added to each well of the culture plate, so that the final concentration of DMSO became 0.1%. After addition of a drug solution, the obtained mixture was further cultured in the 5% carbon dioxide gas-containing culture vessel at 37° C. for 3 days. After completion of the culture for 3 days in the presence of the compound, the cells were counted using CellTiter-Glo 2.0 (manufactured by Promega) in accordance with the protocols recommended by Promega. The growth inhibition percentage was calculated according to the following equation. […] Growth inhibitory percentage (%)=(C−T)/(C)×100 T: Emission intensity from the well to which the test compound was added C: Emission intensity from the well to which the test compound was not added

A short description of series [6]: Evaluation of oral absorbability. In kind it is in vivo, BALB/cA mice. The note with it: oral 50 mg/kg/day; for AUC(0-t): mouse, plasma, BALB/cA mice. The method, then: The compound of the present invention was suspended or dissolved in 0.5% HPMC aqueous solution and 0.1 N hydrochloric acid, and the obtained suspension or solution was orally administered to BALB/cA mice (CLEA Japan, Inc.) at a dose of 50 mg/kg/day. At 0.5, 1, 2, 4 and 6 hours after completion of the oral administration, blood was collected from the facial vein over time, so as to obtain plasma. The concentration of the compound in the obtained plasma was measured by LC-MS/MS, and the oral absorbability of the present compound was evaluated.

A short description of series [7]: Evaluation of brain penetration properties. The class given is in vivo, BALB/cA mice. Particulars: 0.5 hours after oral 50 mg/kg/day.

Ba/F3-HER2insYVMA cells, sequence (P04626 with tags, fused parts or gaps DUP772-775): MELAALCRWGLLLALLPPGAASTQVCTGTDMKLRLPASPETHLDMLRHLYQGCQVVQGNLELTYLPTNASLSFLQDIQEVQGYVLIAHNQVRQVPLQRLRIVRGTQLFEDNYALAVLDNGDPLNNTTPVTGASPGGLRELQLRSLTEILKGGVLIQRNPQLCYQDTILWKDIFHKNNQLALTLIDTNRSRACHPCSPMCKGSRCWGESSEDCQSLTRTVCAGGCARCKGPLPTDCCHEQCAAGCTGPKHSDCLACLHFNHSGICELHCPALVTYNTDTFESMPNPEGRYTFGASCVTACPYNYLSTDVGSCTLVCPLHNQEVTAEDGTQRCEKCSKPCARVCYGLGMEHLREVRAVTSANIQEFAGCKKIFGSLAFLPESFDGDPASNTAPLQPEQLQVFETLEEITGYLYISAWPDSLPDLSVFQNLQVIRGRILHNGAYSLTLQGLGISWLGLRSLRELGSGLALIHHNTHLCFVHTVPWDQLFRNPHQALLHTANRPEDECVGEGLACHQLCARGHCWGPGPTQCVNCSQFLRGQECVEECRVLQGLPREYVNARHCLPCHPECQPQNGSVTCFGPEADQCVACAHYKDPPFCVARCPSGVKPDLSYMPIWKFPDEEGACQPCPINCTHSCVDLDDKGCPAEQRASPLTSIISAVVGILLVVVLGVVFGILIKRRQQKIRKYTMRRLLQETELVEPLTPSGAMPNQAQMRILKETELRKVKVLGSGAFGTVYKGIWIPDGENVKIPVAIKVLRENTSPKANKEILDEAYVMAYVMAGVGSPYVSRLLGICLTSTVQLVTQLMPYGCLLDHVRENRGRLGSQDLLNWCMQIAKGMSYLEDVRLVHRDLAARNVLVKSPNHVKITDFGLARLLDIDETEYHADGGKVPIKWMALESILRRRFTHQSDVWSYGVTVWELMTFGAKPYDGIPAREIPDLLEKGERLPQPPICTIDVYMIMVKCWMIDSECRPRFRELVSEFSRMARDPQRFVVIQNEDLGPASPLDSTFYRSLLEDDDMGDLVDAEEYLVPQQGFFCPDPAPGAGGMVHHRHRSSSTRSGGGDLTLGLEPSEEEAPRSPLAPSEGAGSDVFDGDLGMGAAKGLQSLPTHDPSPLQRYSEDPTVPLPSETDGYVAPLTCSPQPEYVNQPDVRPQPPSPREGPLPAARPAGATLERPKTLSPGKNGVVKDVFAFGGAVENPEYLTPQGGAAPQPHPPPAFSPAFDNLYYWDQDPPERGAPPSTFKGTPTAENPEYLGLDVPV
HER2 exon 20 insertion mutant (HER2ex20insYVMA, A775_G776insYVMA), sequence (P04626 with tags, fused parts or gaps DUP772-775): as above
T1 sequence (P04626 23-1255): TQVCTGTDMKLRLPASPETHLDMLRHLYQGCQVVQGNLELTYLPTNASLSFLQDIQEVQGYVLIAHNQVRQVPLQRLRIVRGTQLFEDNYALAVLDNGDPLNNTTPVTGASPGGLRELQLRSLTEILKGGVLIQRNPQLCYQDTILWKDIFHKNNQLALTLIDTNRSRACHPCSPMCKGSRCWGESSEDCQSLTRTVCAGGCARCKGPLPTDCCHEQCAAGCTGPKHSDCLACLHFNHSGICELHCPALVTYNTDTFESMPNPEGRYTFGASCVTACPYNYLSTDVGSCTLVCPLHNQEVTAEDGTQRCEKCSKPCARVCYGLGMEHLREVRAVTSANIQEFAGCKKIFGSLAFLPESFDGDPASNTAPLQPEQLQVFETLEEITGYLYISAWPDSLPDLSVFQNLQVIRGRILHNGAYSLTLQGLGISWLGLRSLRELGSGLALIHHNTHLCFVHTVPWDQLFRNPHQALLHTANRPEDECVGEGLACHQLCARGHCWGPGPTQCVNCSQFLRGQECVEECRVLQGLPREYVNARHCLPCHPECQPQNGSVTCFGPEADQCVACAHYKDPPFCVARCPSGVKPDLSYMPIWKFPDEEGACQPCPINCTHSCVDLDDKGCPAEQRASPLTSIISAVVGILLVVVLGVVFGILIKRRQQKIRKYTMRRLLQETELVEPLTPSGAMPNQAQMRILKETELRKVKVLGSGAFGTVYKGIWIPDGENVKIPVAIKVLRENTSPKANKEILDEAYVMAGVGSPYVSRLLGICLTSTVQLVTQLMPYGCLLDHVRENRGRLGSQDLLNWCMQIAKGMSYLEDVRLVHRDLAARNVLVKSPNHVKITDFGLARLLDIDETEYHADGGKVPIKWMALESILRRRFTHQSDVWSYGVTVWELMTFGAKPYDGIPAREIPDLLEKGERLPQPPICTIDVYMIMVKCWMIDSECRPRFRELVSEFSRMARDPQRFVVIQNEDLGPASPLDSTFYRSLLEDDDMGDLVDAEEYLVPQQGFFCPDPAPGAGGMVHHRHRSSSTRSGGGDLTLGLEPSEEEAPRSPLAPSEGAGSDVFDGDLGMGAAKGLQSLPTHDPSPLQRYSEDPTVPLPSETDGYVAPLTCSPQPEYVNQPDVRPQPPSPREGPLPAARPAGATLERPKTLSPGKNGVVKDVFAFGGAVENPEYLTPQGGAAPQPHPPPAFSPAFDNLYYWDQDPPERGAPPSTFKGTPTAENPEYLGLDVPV

Consider `C=CC(=O)N1C[C@H](n2c(C#CC)c(C(=O)NCC3CCCCC3)c3c(N)ncnc32)C[C@@H]1C` [Comp. Ex. 3, 7-((3R,5S)-1-acryloyl-5-methylpyrrolidin-3-yl)-4-amino-N-(cyclohexylmethyl)-6-(prop-1-yn-1-yl)-7H-pyrrolo[2,3-d]pyrimidine-5-carboxamide], for which the values for the IC50 in series [1], in series [2] and in series [3] were 630 nM, 380 nM and 4300 nM, respectively. Also, in series [4], the GI50 turned out to be 3400 nM.

In the case of `C=CC(=O)N1C[C@H](n2c(C#CC(C)C)c(C(=O)NC(C)(C)c3ccccc3F)c3c(N)ncnc32)C[C@@H]1C` [Example 15, 7-((3R,5S)-1-acryloyl-5-methylpyrrolidin-3-yl)-4-amino-N-(2-(2-fluorophenyl)propan-2-yl)-6-(3-methylbut-1-yn-1-yl)-7H-pyrrolo[2,3-d]pyrimidine-5-carboxamide], the IC50 in series [1] is 4.6 nM; in series [2], 0.42 nM; in series [3] it was 7 nM; in series [5] it was 11.6 nM. Also, the GI50 in series [4] came out at 40 nM. This compound returned an AUC(0-t) in series [6] of 34 µM·h.

Take `C=CC(=O)N1C[C@H](n2nc(C(=O)Nc3ccc(CC(=O)N(C)C)c(C)c3C)c3c(N)ncnc32)C[C@@H]1C` [Comp. Ex. 2, 1-((3R,5S)-1-acryloyl-5-methylpyrrolidin-3-yl)-4-amino-N-(4-(2-(dimethylamino)-2-oxoethyl)-2,3-dimethylphenyl)-1H-pyrazolo[3,4-d]pyrimidine-3-carboxamide, reference compound]: the results for the half-inhibitory concentration (IC50) in series [1], in series [2] and in series [3] were 19 nM, 4.4 nM and 25 nM, respectively. Also, the GI50 in series [4] worked out at 1900 nM. This compound also gave an AUC(0-t) in series [6] of 1.5 µM·h. In addition, the “oral absorbability attenuated versus the compound of the present invention” value in series [6] (mice) is recorded as “more than 4 times”. In addition, the “brain concentration attenuated versus the compound of the present invention” value in series [7] (mice) is recorded as “more than 80 times”. In series [7] (mouse, brain, BALB/cA mice, read-out: Kp value (Compound concentration in brain/plasma)), the Kp at 0.5 h stood at 0.005. For the same compound, the concentration at 0.5 h in series [7] (mouse, plasma, BALB/cA mice, read-out: Compound concentration in plasma) came out at 1600 nM.

Take `C=CC(=O)N1C[C@H](n2c(C#CC)c(C(=O)NCc3ccccc3C)c3c(N)ncnc32)C[C@@H]1C` [Comp. Ex. 4, 7-((3R,5S)-1-acryloyl-5-methylpyrrolidin-3-yl)-4-amino-N-(2-methylbenzyl)-6-(prop-1-yn-1-yl)-7H-pyrrolo[2,3-d]pyrimidine-5-carboxamide]: the IC50 in series [1] was 54 nM; in series [2], 11 nM; in series [3], 340 nM. In addition, in series [4], the GI50 worked out at 900 nM.

With `CC#Cc1c(C(=O)N[C@H](C)c2ccccc2)c2c(N)ncnc2n1[C@@H]1C[C@H](C)N(C(=O)/C=C/C)C1` [Comp. Ex. 6, 4-Amino-7-((3R,5S)-1-((E)-but-2-enoyl)-5-methylpyrrolidin-3-yl)-N—((R)-1-phenylethyl)-6-(prop-1-yn-1-yl)-7H-pyrrolo[2,3-d]pyrimidine-5-carboxamide], the results for the IC50 in series [1], in series [2] and in series [3] were 390 nM, over 10000 nM and 3000 nM, respectively. For the same compound, the GI50 in series [4] stood at 4100 nM.

In the case of `CC#Cc1c(C(=O)Nc2ccc(COC)cc2)c2c(N)ncnc2n1C1(C)CC1` [Comp. Ex. 1, 4-Amino-N-(4-(methoxymethyl)phenyl)-7-(1-methylcyclopropyl)-6-(prop-1-yn-1-yl)-7H-pyrrolo[2,3-d]pyrimidine-5-carboxamide, reference compound], the IC50 in series [1], in series [2] and in series [3] was over 10000 nM each time. Also, in series [4], the GI50 was over 10000 nM.

Turning to `C=CC(=O)N1C[C@H](n2c(C#CC)c(C(=O)N(C)[C@H](C)c3ccccc3)c3c(N)ncnc32)C[C@@H]1C` [Comp. Ex. 5, 7-((3R,5S)-1-acryloyl-5-methylpyrrolidin-3-yl)-4-amino-N-methyl-N—((R)-1-phenylethyl)-6-(prop-1-yn-1-yl)-7H-pyrrolo[2,3-d]pyrimidine-5-carboxamide], the IC50 in series [1] turned out to be 130 nM; in series [2], 14 nM; in series [3] it was 400 nM. The GI50 in series [4] was 1300 nM.

A word on the IC50: it is the midpoint of a concentration-inhibition curve. What is called AUC(0-t) is the area under the concentration-time curve up to a stated or last time point. The low end stands for less exposure, the high end for more exposure.
